{"source": "paper PMC6540241", "about": "“Targeting Tumor Markers with Antisense Peptides: An Example of Human Prostate Specific Antigen” (International Journal of Molecular Sciences, 2019)", "system": "human prostate specific antigen (hPSA) in prostate cancer tissue", "experiment": "Immunohistochemical staining of hPSA, protocol 2 (biotinylated peptide instead of primary antibody)", "parameters": "key to overall quality of scoring (NordiQC) / hPSA staining quality score (NordiQC): 3: Staining reaction considered perfect or close to perfect.; 2: Staining reaction considered fully acceptable. The protocol may be optimized to ensure the best staining intensity and signal-to-noise ratio.; 1: Staining considered insufficient.; 0: Staining considered very insufficient", "procedure": "Immunohistochemistry was performed on deparafinized slides (xylen and a series of ethanol solutions) at room temperature (20–25 °C). The phosphate-buffered saline (PBS) was used, with a pH of 7.2 and containing disodium hydrogen phosphate, sodium chloride, potassium chloride and potassium dihydrogen phosphate was used. PBS stock solution: 4 g KH2PO4, 23 g Na2HPO4, 4 g KCl, 160 g NaCl and 810 mL distilled water. Before staining, 100 mL of stock solution was diluted with 1900 mL of distilled water.\nAll slides (from seven patients) were selected from the repository of prostate cancer tissue, with diagnosis confirmed by consensus of two independent pathologists. The two pathologists who examined the slides stained with antisense peptides were unconnected with the pathologists who established the initial diagnosis.\nEach of the two immunohistochemistry protocols for PSA staining consisted of six steps. Steps 1, 4, 5 and 6 of protocol 1 and protocol 2 were identical, while steps 2 and 3 differed (Figure 5 and Figure 6). For this study, the slides were kept in the dark at room temperature (20–25 °C), to prevent fading as a result of exposure to strong light. They were analyzed using an Olympus BX41 microscope, with an Olympus DP71 camera set to three levels of magnification: less than 40×, 100×, and 500×.\nThe staining protocol 2 was a modified IHC protocol 1, as follows: In step 2 we used antisense peptide Biotin-AVRDKVG, instead of the primary monoclonal mouse anti-human PSA antibody, in step 3 we used rabbit polyclonal antibody to biotin conjugated to HRP, instead of HRP labeled polymer conjugated to goat anti-mouse immunoglobulins (Figure 5), with peptide Biotin-EHFRW as a negative control (Figure 7). Otherwise, the procedures and chemicals were identical. Quality control for the PSA staining was investigated using NordiQC scoring criteria: 0—Poor; 1—Borderline; 2—Good; 3—Optimal. The scale is presented in Table A2, and the final results given in Table 4 are expressed as a sum of scores.\nIHC staining―protocol 2: • The specimen was covered with peroxidase block, i.e., 100 μL of 0.03% hydrogen peroxide containing sodium azide (Dako, Glostrup, Denmark), and incubated for four minutes. Following this, the specimen was gently rinsed with phosphate buffered saline (PBS), and placed in a fresh buffer bath. • Biotinylated antisense peptide AVRDKVG (GenScript, Piscataway, NJ, USA) directed to PSA epitope 53–59 (RHSLFHP) was used to cover the specimen. Five milligrams of Biotin-AVRDKVG antisense was diluted in 2.5 mL PBS. Dilutions 1:10, 1:50, 1:100, 1:200 and 1:500 were applied to cover the specimen. A 100 μL volume was used per section. After 30 min of incubation, each specimen was gently rinsed with PBS and placed in a fresh buffer bath. • Anti-biotin antibody conjugated to HRP (ab34645, Abcam, Cambridge, UK) was applied to cover the specimen. Of the antibody 10 mg/2 mL was diluted 1:100. One hundred microliters of the diluted antibody was applied to cover each specimen, followed by a 30 min incubation. After the incubation, the specimen was gently rinsed with PBS and placed in a fresh buffer bath. • The specimen was covered with 100 μL of AEC + substrate-chromogen solution for 10 min, i.e., 3-amino-9-ethylcarbazole containing hydrogen peroxide, stabilizers, enhancers and an anti-microbial agent (Dako, Glostrup, Denmark). After that period the specimen was again rinsed with PBS. • The slides were immersed in a bath of aqueous hematoxylin (Mayerr’s hematoxylin), and rinsed gently in a distilled water bath. The slides were dipped 10 times into a bath of ammonia (0.037 mol/L), and then rinsed in a bath of distilled water for four minutes. • The specimens were mounted and coverslipped with non-aqueous permanent mounting medium Ultramount.", "note": "Where a SMILES comes first, the peptide text is derived from it. The star is where a group is joined. Biotin = O=C1N[C@H]2[C@H](CS[C@H]2CCCCC(=O)*)N1", "data": [{"compound": "CC(C)[C@H](NC(=O)[C@H](C)NC(=O)CCCC[C@@H]1SC[C@@H]2NC(=O)N[C@@H]21)C(=O)N[C@@H](CCCNC(=N)N)C(=O)N[C@@H](CC(=O)O)C(=O)N[C@@H](CCCCN)C(=O)N[C@H](C(=O)NCC(=O)O)C(C)C", "note": "[Biotin-AVRDKVG] (Biotin-AVRDKVG-OH)", "values": [{"measurement": "signal to noise ratio versus standard monoclonal antibody", "setting": "compared with primary monoclonal mouse anti-human PSA antibody", "value": "comparable to the standard primary monoclonal mouse anti-human PSA antibody"}, {"measurement": "hPSA staining quality score (NordiQC)", "setting": "dilution 1:10 (of 5 mg in 2.5 mL PBS), patient 1", "value": 0}, {"measurement": "hPSA staining quality score (NordiQC)", "setting": "dilution 1:10, patient 2", "value": 0}, {"measurement": "hPSA staining quality score (NordiQC)", "setting": "dilution 1:10, patient 3", "value": 0}, {"measurement": "hPSA staining quality score (NordiQC)", "setting": "dilution 1:10, patient 4", "value": 0}, {"measurement": "hPSA staining quality score (NordiQC)", "setting": "dilution 1:10, patient 5", "value": 0}, {"measurement": "hPSA staining quality score (NordiQC)", "setting": "dilution 1:10, patient 6", "value": 0}, {"measurement": "hPSA staining quality score (NordiQC)", "setting": "dilution 1:10, patient 7", "value": 0}, {"measurement": "Sum of scores (NordiQC)", "setting": "dilution 1:10, seven patients", "value": 0}, {"measurement": "hPSA staining quality score (NordiQC)", "setting": "dilution 1:50, patient 1", "value": 1}, {"measurement": "hPSA staining quality score (NordiQC)", "setting": "dilution 1:50, patient 2", "value": 1}, {"measurement": "hPSA staining quality score (NordiQC)", "setting": "dilution 1:50, patient 3", "value": 2}, {"measurement": "hPSA staining quality score (NordiQC)", "setting": "dilution 1:50, patient 4", "value": 1}, {"measurement": "hPSA staining quality score (NordiQC)", "setting": "dilution 1:50, patient 5", "value": 1}, {"measurement": "hPSA staining quality score (NordiQC)", "setting": "dilution 1:50, patient 6", "value": 1}, {"measurement": "hPSA staining quality score (NordiQC)", "setting": "dilution 1:50, patient 7", "value": 1}, {"measurement": "Sum of scores (NordiQC)", "setting": "dilution 1:50, seven patients", "value": 8}, {"measurement": "staining of prostate cancer tissue", "setting": "dilution 1:100", "value": "solid staining signal with minimal or absent background noise"}, {"measurement": "hPSA staining quality score (NordiQC)", "setting": "dilution 1:100, patient 1", "value": 2}, {"measurement": "hPSA staining quality score (NordiQC)", "setting": "dilution 1:100, patient 2", "value": 2}, {"measurement": "hPSA staining quality score (NordiQC)", "setting": "dilution 1:100, patient 3", "value": 3}, {"measurement": "hPSA staining quality score (NordiQC)", "setting": "dilution 1:100, patient 4", "value": 2}, {"measurement": "hPSA staining quality score (NordiQC)", "setting": "dilution 1:100, patient 5", "value": 3}, {"measurement": "hPSA staining quality score (NordiQC)", "setting": "dilution 1:100, patient 6", "value": 2}, {"measurement": "hPSA staining quality score (NordiQC)", "setting": "dilution 1:100, patient 7", "value": 2}, {"measurement": "Sum of scores (NordiQC)", "setting": "dilution 1:100, seven patients", "value": 16}, {"measurement": "hPSA staining quality score (NordiQC)", "setting": "dilution 1:200, patient 1", "value": 0}, {"measurement": "hPSA staining quality score (NordiQC)", "setting": "dilution 1:200, patient 2", "value": 1}, {"measurement": "hPSA staining quality score (NordiQC)", "setting": "dilution 1:200, patient 3", "value": 1}, {"measurement": "hPSA staining quality score (NordiQC)", "setting": "dilution 1:200, patient 4", "value": 1}, {"measurement": "hPSA staining quality score (NordiQC)", "setting": "dilution 1:200, patient 5", "value": 1}, {"measurement": "hPSA staining quality score (NordiQC)", "setting": "dilution 1:200, patient 6", "value": 1}, {"measurement": "hPSA staining quality score (NordiQC)", "setting": "dilution 1:200, patient 7", "value": 1}, {"measurement": "Sum of scores (NordiQC)", "setting": "dilution 1:200, seven patients", "value": 6}, {"measurement": "hPSA staining quality score (NordiQC)", "setting": "dilution 1:500, patient 1", "value": 0}, {"measurement": "hPSA staining quality score (NordiQC)", "setting": "dilution 1:500, patient 2", "value": 0}, {"measurement": "hPSA staining quality score (NordiQC)", "setting": "dilution 1:500, patient 3", "value": 0}, {"measurement": "hPSA staining quality score (NordiQC)", "setting": "dilution 1:500, patient 4", "value": 0}, {"measurement": "hPSA staining quality score (NordiQC)", "setting": "dilution 1:500, patient 5", "value": 0}, {"measurement": "hPSA staining quality score (NordiQC)", "setting": "dilution 1:500, patient 6", "value": 0}, {"measurement": "hPSA staining quality score (NordiQC)", "setting": "dilution 1:500, patient 7", "value": 0}, {"measurement": "Sum of scores (NordiQC)", "setting": "dilution 1:500, seven patients", "value": 0}, {"measurement": "staining of prostate cancer tissue", "setting": "dilutions 1:10 and 1:50", "value": "increase in background noise"}, {"measurement": "staining of prostate cancer tissue", "setting": "dilutions 1:200 and 1:500", "value": "loss of staining signal"}, {"measurement": "non-specific staining of prostate tissue", "setting": "high concentration (1:10)", "value": "increase in background"}, {"measurement": "overall quality of scoring (NordiQC)", "setting": "overall", "value": 2}]}]}
